Measured values from paper PMC5584973, “Characterization of novel bangle lectin from Photorhabdus asymbiotica with dual sugar-binding specificity and its effect on host immunity” (PLoS Pathogens, 2017).

Columns and labels:
[1] = tested on: phenoloxidase (PO) in haemolymph of G. mellonella; test: Phenoloxidase activity in insect haemolymph; format: biochemical, Galleria mellonella; settings: G. mellonella haemolymph; 475 μg for BSA, PLL
Procedure: (§1) Larvae of the greater wax moth, Galleria mellonella, were reared on an artificial diet at 30 ± 1°C in constant darkness. Haemolymph was collected from the seventh instar larvae by cutting a proleg and pooling the haemolymph into a tube containing phenylthiourea (1 mg/ml in PBS; haemolymph mixed with phenylthiourea in the ratio 9:1 [v/v]) or used directly for the determination of phenoloxidase activity.
PO activity was measured according to previously published studies. Haemolymph of G. mellonella (5 μl) was collected directly to 95 μl of PHL (475 μg in PBS for all experiments except dose-dependence assay where different dilutions of PHL were used), PLL (475 μg in PBS), BSA (475 μg in PBS) or PBS (pH 7.4) and incubated for 10 min at room temperature. After incubation, 40 μl of reaction mixture was transported to the microplate well and 160 μl of 3,4-dihydroxy-DL-phenylalanine (3 mg/ml in PBS) was added as substrate. The reaction was allowed to proceed for 30 min, and absorbance was measured in 2-min intervals at 492 nm with a Sunrise reader (Tecan, Switzerland). PO activity was expressed as linear increase in absorbance per minute. For the inhibition assay, PHL was pre-incubated with 0.2M L-Fuc or Me-α-L-Fuc for 10 min at room temperature prior to mixing with haemolymph.

whole human blood = test: Oxidative burst (ROS production) in human blood; format: cell-based; settings: 125 μg protein
Procedure: ROS production was measured according to previously published work in whole human blood within 15 min of sampling. The fresh human blood (2 μl diluted 40x in HBSS; 0.137 M NaCl, 5.4 mM KCl, 0.44 mM KH2PO4, 0.25 mM Na2HPO4, 4.2 mM NaHCO3, 1.0 mM MgSO4, 1.3 mM CaCl2, 5.55 mM glucose; pH 7.4) was mixed with 25 μl of PHL (125 μg in PBS for all experiments except dose-dependence assay where different dilutions of PHL were used), BSA (125 μg in PBS) or PBS (pH 7.4) and incubated for 10 min at 37°C or room temperature. After incubation, 25 μl of the luminophore (10 mM luminol) and 25 μl of activator zymosan A (2.5 mg/ml in HBSS) was added to activate ROS production in phagocytes. To detect the constitutive production of ROS, zymosan was replaced with the same volume of HBSS. Luminescence was recorded with a Chameleon V luminometer (Hidex, Finland) for two hours at 37°C or room temperature, and the integrals of reactions were compared. Results from experimental treatments (incubation of blood with PHL and BSA) were normalised to the integral of the oxidative response in the respective blood sample with PBS.

G. mellonella haemolymph = test: Antimicrobial activity of insect haemolymph against E. coli K12; design: species or system Galleria mellonella; settings: 320 μg protein
Procedure: as §1
(§2) The antimicrobial activity of human sera and insect haemolymph was measured luminometrically using the bioluminescent Gram-negative bacteria Escherichia coli K12 [59]. We have modified previously published protocol to measure the effect of PHL [60]. […] After treatment, 120 μl of bacteria working solution containing 100,000 E. coli K12 cells in PBS (pH 7.0) was added to the reaction well and the luminescence signal was recorded with a Chameleon V luminometer (Hidex, Finland) in counts per second (CPS). Reaction wells with PHL, BSA or PBS in an 80 μl volume of the same concentrations and pH as above were measured with E. coli K12 in each experiment as viability controls, not affected by human serum nor haemolymph. The luminescence produced by E. coli K12 corresponds to the bacterial viability. The antimicrobial effect of human sera and haemolymph was determined as time elapsed until the luminescence signal decreased under 1000 or 5000 CPS, respectively. […]

human serum = test: Antimicrobial activity of human serum against E. coli K12; settings: 320 μg protein
Procedure: Samples of human blood were collected from healthy donors to tubes without anticoagulant and anonymized prior to experiments. The blood was allowed to clot for at least 10 min, centrifuged at 2,000 g, 10 min to remove the clot and the collected serum was used immediately for subsequent analysis. The serum was analysed within two hours after blood collection in all experiments.
as §2

bovine serum albumin [BSA]
effect on PO activity (melanisation) [1]: did not have any effect | ROS production (integral of luminescence) (whole human blood; blood challenged with activator zymosan A): 5.3±1.3 x 10^6 CPS*min | constitutive ROS production (integral of luminescence) (whole human blood; whole human blood A/B/O, without activator, 2 hours): 26.9±16.9 x 10^3 CPS*min | effect on antimicrobial activity against E. coli K12 (G. mellonella haemolymph): not able to block the effect of antimicrobial factors | effect on antimicrobial activity against E. coli K12 (human serum): not able to block the effect of antimicrobial factors
